# pIC50, pKi: −log10 of the molar value. Where a SMILES comes first, the peptide text is derived from it. [ ]: non-standard residue; d: D form. The star is where a group is joined. Cha = N[C@@H](CC1CCCCC1)C(=O)O; Boc = CC(C)(C)OC(=O)*; CF3 = FC(F)(F)*
# Assays:
# Renin = molecular target: T1, Renin (Homo sapiens, UniProt P00797); assay: Concentration required to inhibit human plasma renin by 50% using radio-immunoassay was determined; assay type: cell-free
# T1 sequence (P00797 whole entry): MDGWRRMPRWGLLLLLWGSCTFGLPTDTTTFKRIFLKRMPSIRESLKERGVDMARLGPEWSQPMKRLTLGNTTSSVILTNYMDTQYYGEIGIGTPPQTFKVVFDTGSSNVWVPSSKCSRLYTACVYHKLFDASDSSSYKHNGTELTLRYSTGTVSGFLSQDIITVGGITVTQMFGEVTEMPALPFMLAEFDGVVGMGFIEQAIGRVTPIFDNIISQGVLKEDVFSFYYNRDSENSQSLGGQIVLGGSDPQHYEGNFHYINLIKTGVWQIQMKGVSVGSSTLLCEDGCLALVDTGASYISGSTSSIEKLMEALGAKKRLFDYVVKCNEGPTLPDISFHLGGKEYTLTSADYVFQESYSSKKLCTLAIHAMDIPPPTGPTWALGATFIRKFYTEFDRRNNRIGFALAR
# Chymotrypsinogen A = Chymotrypsinogen A (Bos taurus, UniProt P00766); assay: Concentration required to inhibit the enzyme chymotrypsin
# Pepsin A = Pepsin A (Sus scrofa, UniProt P00791); assay: Concentration required to inhibit the enzyme pepsin
# Pepsin A, sequence (P00791 whole entry): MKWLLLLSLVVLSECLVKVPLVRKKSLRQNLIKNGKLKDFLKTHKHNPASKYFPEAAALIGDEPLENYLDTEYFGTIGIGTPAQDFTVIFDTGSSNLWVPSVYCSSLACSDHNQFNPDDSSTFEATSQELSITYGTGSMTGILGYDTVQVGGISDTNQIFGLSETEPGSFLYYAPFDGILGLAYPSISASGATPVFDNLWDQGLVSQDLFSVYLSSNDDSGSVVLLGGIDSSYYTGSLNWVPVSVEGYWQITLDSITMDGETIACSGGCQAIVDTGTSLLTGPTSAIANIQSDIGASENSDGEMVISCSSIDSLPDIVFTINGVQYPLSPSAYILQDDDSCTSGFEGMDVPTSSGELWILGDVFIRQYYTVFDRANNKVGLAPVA
pIC50 (Renin),pKi (Chymotrypsinogen A),pKi (Pepsin A),SMILES
4.60,,,COc1ccc(C[C@H](NC(=O)CC(C)C)C(=O)CCC(=O)N[C@@H](CC2CCCCC2)C(=O)C(F)(F)CN)cc1
< 6.00,,,CCC[C@H](NC(=O)[C@H](Cc1ccc(OC)cc1)NC(=O)CC(C)C)C(=O)N[C@@H](CC1CCCCC1)C(O)C(F)(F)CN (some centres not stated)
4.40,,,CCC[C@@H](C(=O)N[C@@H](CC1CCCCC1)C(=O)C(F)(F)CN)N(C)C(=O)[C@H](Cc1ccc(OC)cc1)NC(=O)CC(C)C
6.60,,,CC(C)C[C@H](NC(=O)[C@H](Cc1ccccc1)NC(=O)OC(C)(C)C)C(=O)N[C@@H](CC1CCCCC1)C(=O)C(F)(F)F (Boc-Phe-Leu-[Cha]-CF3)
4.57,,,COc1ccc(C[C@H](NC(=O)CC(C)C)C(=O)N[C@H](C)C(=O)N[C@@H](CC2CCCCC2)C(=O)C(F)(F)CN)cc1
,5.60,4.40,CCC[C@H](NC(=O)[C@H](Cc1ccc(OC)cc1)NC(=O)CC(C)C)C(=O)N[C@@H](CC1CCCCC1)C(=O)C(F)(F)CN

# Reference: ChEMBL document CHEMBL1126429, “MDL 74147, a novel selective and soluble inhibitor of human renin. Synthesis, structure-activity relationship, species and protease selectivities” (Bioorg Med Chem Lett, 1992)
